# Test results published in patent US20210238169A1, “PROCESS FOR PREPARING A COMPOUND OF FORMULA (XIII)” (PULMOCIDE LIMITED, priority 2014, published 2021).
# Read-outs that look alike come from different tables or passages of the source.
# How the values were obtained:
# [1] = system: Aspergillus fumigatus isolates; experiment: Broth microdilution assay of planktonic fungal growth (modified EUCAST); type: cell-based; details: Aspergillus fumigatus; isolate NCPF7100, broth microdilution; read-out: MIC75
# [2] = Fungus panel screening, CLSI broth microdilution; type: cell-based, Aspergillus pullulans; details: Aspergillus
# Description: (§1) Fungus panel screening was conducted by Eurofins Panlabs Inc. The MIC and MIC50 values of the test articles were determined following the guidelines of the Clinical and Laboratory Standards Institute, broth microdilution methods for yeast (CLSI M27-A2), (CLSI, 2002) and for filamentous fungi (CLSI M38-A), (CLSI, 2008).
# [3] = system: Aspergillus fumigatus (NCPF2010); experiment: Resazurin-microtitre assay of planktonic fungal growth; type: cell-based; details: Aspergillus fumigatus; for MIC: read-out: Planktonic fungal growth MIC75
# Description: This assay was conducted using a modified, published method (Monteiro et al., 2012). Spores of Aspergillus fumigatus (NCPF2010, Public Health England, Wiltshire) were cultured in Sabouraud dextrose agar for 3 days. A stock spore suspension was prepared from a Sabouraud dextrose agar culture by washing with PBS-tween (10 mL; PBS containing 0.05% Tween-20, 100 U/mL Penicillin and 100 U/mL Streptomycin). The spore count was assessed using a Neubauer haemocytometer and, using PBS, adjusted to 10^6 spores/mL. A working suspension of spores (10^4 spores/mL) was prepared in filter sterilised MOPS RPMI-1640 (50 mL; RPMI-1640 containing 2 mM L-glutamine, 2% glucose and 0.165 M MOPS, buffered to pH 7 with NaOH). Resazurin sodium salt (100 μL of 1% solution; Sigma-Aldrich, Dorset, UK) was added to the spore suspension and mixed well. The spore suspension-resazurin mixture (100 μL/well) was added to 384-well plates (Catalogue number 353962, BD Falcon, Oxford, UK). Simultaneously, test compounds (0.5 μL DMSO solution) were added to 100 μL of the spore-resazurin mixture in quadruplicate to provide a final DMSO solution of 0.5% using an Integra VIAFLO 96 (Intergra, Zizers, Switzerland). For non-spore control wells, MOPS-RPMI-resazurin solution (100 μL) was added instead of the spore-resazurin mixture. The plate was covered with a Breathe Easier membrane (Catalogue No Z763624, Sigma-Aldrich, Dorset, UK), and incubated (35° C., 5% CO2) until fluorescence in the inoculated wells was double that of the control wells (around 24 hr). The fluorescence of each well (545 nm (excitation)/590 nm (emission), gain 800, focal height 5.5 mm) was determined using a multi-scanner (Clariostar: BMG, Buckinghamshire, UK). The percentage inhibition for each well was calculated and the MIC50, MIC75 and MIC90 values were calculated from the concentration-response curve generated for each test compound.
# [4] = Cell viability: resazurin assay; type: cell-based, human; details: human, n = 1-5
# Description: BEAS2B cells were seeded in 384-well plates (100 μL; 3000/well/; BD Falcon, Catalogue No 353962) in RPMI-LHC8 (RPMI-1640 and LHC8 media combined in equal proportions) one day before experimentation. For cell-free control wells, RPMI-LHC8 (100 μL) was added. Test compounds (0.5 μL of a DMSO solution) were added to give a final DMSO concentration of 0.5% using an Integra VIAFLO 96 (Integra, Zizers, Switzerland). BEAS2B cells were incubated with each test compound for 1 day (37° C./5% CO2 in RPMI-LHC8). After addition of resazurin stock solution (5 μL, 0.04%) the plates were incubated for a further 4 hr (37° C./5% CO2). The fluorescence of each well at 545 nm (excitation) and 590 nm (emission) was determined using a multi-scanner (Clariostar: BMG Labtech). The percentage loss of cell viability was calculated for each well relative to vehicle (0.5% DMSO) treatment. Where appropriate, a CC50 value was calculated from the concentration-response curve generated from the concentration-response curve for each test compound.
# Penicillium chrysogenum = experiment: Fungus panel screening, CLSI broth microdilution; type: cell-based; details: strain ATCC9480, visual inspection (CLSI); for MIC: read-out: MIC100
# Description: as §1
# Candida albicans = experiment: Fungus panel screening, CLSI broth microdilution; type: cell-based; details: for MIC50 / MIC: Candida albicans; for MIC: read-out: MIC100
# Description: as §1
# Rhizopus oryzae = experiment: Fungus panel screening, CLSI broth microdilution; type: cell-based; details: Rhizopus arrhizus, strain ATCC11145, visual inspection (CLSI); for MIC: read-out: MIC100
# Description: as §1
# Chaetomium globosum = experiment: Fungus panel screening, CLSI broth microdilution; type: cell-based; details: strain ATCC44699, visual inspection (CLSI); for MIC: read-out: MIC100
# Description: as §1
# Candida glabrata = experiment: Fungus panel screening, CLSI broth microdilution; type: cell-based; details: Nakaseomyces glabratus; for MIC: read-out: MIC100
# Description: as §1
# Trichophyton rubrum = experiment: Fungus panel screening, CLSI broth microdilution; type: cell-based; details: strain ATCC10218, visual inspection (CLSI); for MIC: read-out: MIC100
# Description: as §1
# Aspergillus fumigatus = Aspergillus fumigatus infection of BEAS2B bronchial epithelial cells (GM in supernatant); type: cell-based
# Description: BEAS2B cells were seeded in 96-well plates (100 μL; 30,000 cells/well; Catalogue No 3596, Sigma Aldrich, Dorset, UK) in 10% FBS RPMI-1640 and were then incubated (37° C., 5% CO2) for one day before experimentation. Test compounds (0.5 μL DMSO solution) or vehicle (DMSO) were added to each well to give a final DMSO concentration of 0.5%. BEAS2B cells were incubated with test compounds for 1 hr (35° C., 5% CO2) before infection with Aspergillus fumigatus (20 μL; Public Health England) conidia suspension (0.5×10^5/ml in 10% FBS RPMI-1640). The plate was incubated for 24 hr (35° C., 5% CO2). Supernatant (50 μL) was collected and transferred to a PCR plate (Catalogue No L1402-9700, Starlab, Milton Keynes, UK), which was frozen (−20° C.) until use. After thawing, supernatant (5 μL) was diluted 1:20 by adding R7-PBS solution (95 μL; 1:4 R7 to PBS; Bio-Rad Laboratories, Redmond, Wash., USA). GM levels in these samples (50 μL) were measured using Platelia GM-EIA kits (Bio-Rad Laboratories, Redmond, Wash., USA). The percentage inhibition for each well was calculated and the IC50 value was calculated from the concentration-response curve generated for each test compound.
# [5] = strain ATCC9348, visual inspection (CLSI), read-out: MIC50
# [6] = strain ATCC9348, visual inspection (CLSI), read-out: MIC100
# [7] = ATCC10231, strain ATCC10231, visual inspection (CLSI)
# [8] = strain 20183.073, visual inspection (CLSI)
# [9] = strain 20186.025, visual inspection (CLSI)
# [10] = strain 20240.047, visual inspection (CLSI)
# [11] = strain ATCC10231, visual inspection (CLSI)
# [12] = strain ATCC36583, visual inspection (CLSI)
# [13] = strain R363, visual inspection (CLSI)
smiles,measurement,setting,value
CC[C@@H]([C@H](C)O)n1ncn(-c2ccc(N3CCN(c4ccc(OC[C@@H]5CO[C@@](Cn6cncn6)(c6ccc(F)cc6F)C5)cc4)CC3)cc2)c1=O [Posaconazole],MIC,[1],0.0715 µM
same,MIC50,[2]; [5],0.25 µg/mL
same,MIC,[2]; [6],1 µg/mL
same,MIC50,[3],0.00364 µM
same,MIC,[3],0.00694 µM
same,CC50 at 1 day,[4]; BEAS2B cells,> 14.3 µM
same,MIC50,Penicillium chrysogenum,0.063 µg/mL
same,MIC,Penicillium chrysogenum,0.13 µg/mL
same,MIC50,Candida albicans; [7],0.13 µg/mL
same,MIC50,Candida albicans; [8],0.25 µg/mL
same,MIC50,Candida albicans; [9],> 8 µg/mL
same,MIC50,Candida albicans; [10],0.031 µg/mL
same,MIC,Candida albicans; [10],> 8 µg/mL
same,MIC,Candida albicans; [11],> 8 µg/mL
same,MIC100,Candida albicans; [9],>8.0 µg/mL
same,MIC50,Rhizopus oryzae,0.13 µg/mL
same,MIC,Rhizopus oryzae,> 8 µg/mL
same,MIC50,Chaetomium globosum,0.13 µg/mL
same,MIC,Chaetomium globosum,0.25 µg/mL
same,MIC50,Candida glabrata; [12],0.5 µg/mL
same,MIC,Candida glabrata; [12],> 8 µg/mL
same,MIC50,Candida glabrata; [13],0.5 µg/mL
same,MIC,Candida glabrata; [13],> 8 µg/mL
same,MIC50,Trichophyton rubrum,< 0.008 µg/mL
same,MIC,Trichophyton rubrum,0.031 µg/mL
same,MIC50,Aspergillus fumigatus,0.00448 µM
C[C@@H](c1ncncc1F)[C@](O)(Cn1cncn1)c1ccc(F)cc1F [Voriconazole],MIC,[1],0.596 µM
same,MIC50,[2]; ATCC9348,> 8 µg/mL
same,MIC,"[2]; ATCC9348, read-out: MIC100",> 8 µg/mL
same,MIC50,[3],0.0908 µM
same,MIC,[3],0.168 µM
same,CC50 at 1 day,[4]; read-out: BEAS2B Cell Viability CC50,> 28.6 µM
same,MIC50,Penicillium chrysogenum,1 µg/mL
same,MIC,Penicillium chrysogenum,2 µg/mL
same,MIC50,Candida albicans; [7],0.25 µg/mL
same,MIC50,Candida albicans; [8],4 µg/mL
same,MIC50,Candida albicans; [9],> 8 µg/mL
same,MIC50,Candida albicans; [10],0.031 µg/mL
same,MIC,Candida albicans; [10],> 8 µg/mL
same,MIC,Candida albicans; [11],> 8 µg/mL
same,MIC100,Candida albicans; [9],>8.0 µg/mL
same,MIC50,Rhizopus oryzae,8 µg/mL
same,MIC,Rhizopus oryzae,> 8 µg/mL
same,MIC50,Chaetomium globosum,0.5 µg/mL
same,MIC,Chaetomium globosum,1 µg/mL
same,MIC50,Candida glabrata; [12],0.25 µg/mL
same,MIC,Candida glabrata; [12],> 8 µg/mL
same,MIC50,Candida glabrata; [13],> 8 µg/mL
same,MIC,Candida glabrata; [13],> 8 µg/mL
same,MIC50,Trichophyton rubrum,< 0.008 µg/mL
same,MIC,Trichophyton rubrum,0.063 µg/mL
same,MIC50,Aspergillus fumigatus,0.154 µM
"Cc1cc(N2CCN(c3ccc(C(=O)Nc4ccc(F)cc4)cc3)CC2)ccc1OC[C@@H]1CO[C@@](Cn2cncn2)(c2ccc(F)cc2F)C1 [Compound (I), 4-(4-(4-(((3R,5R)-5-((1H-1,2,4-triazol-1-yl)methyl)-5-(2,4-difluorophenyl)tetrahydrofuran-3-yl)methoxy)-3-methylphenyl)piperazin-1-yl)-N-(4-fluorophenyl)benzamide]",MIC,[1],0.0197 µM
same,MIC50,[2]; [5],> 8 µg/mL
same,MIC,[2]; [6],> 8 µg/mL
same,MIC50,[3],0.00198 µM
same,MIC,[3],0.00502 µM
same,CC50 at 1 day,[4]; BEAS2B cells,> 12.2 µM
same,MIC50,Penicillium chrysogenum,0.031 µg/mL
same,MIC,Penicillium chrysogenum,> 8 µg/mL
same,MIC50,Candida albicans; [7],0.13 µg/mL
same,MIC50,Candida albicans; [8],0.5 µg/mL
same,MIC50,Candida albicans; [9],> 8 µg/mL
same,MIC50,Candida albicans; [10],0.031 µg/mL
same,MIC,Candida albicans; [10],> 8 µg/mL
same,MIC,Candida albicans; [11],> 8 µg/mL
same,MIC50,Rhizopus oryzae,0.063 µg/mL
same,MIC,Rhizopus oryzae,2 µg/mL
same,MIC50,Chaetomium globosum,0.063 µg/mL
same,MIC,Chaetomium globosum,> 8 µg/mL
same,MIC50,Candida glabrata; [12],0.5 µg/mL
same,MIC,Candida glabrata; [12],> 8 µg/mL
same,MIC50,Candida glabrata; [13],0.5 µg/mL
same,MIC,Candida glabrata; [13],> 8 µg/mL
same,MIC50,Trichophyton rubrum,< 0.008 µg/mL
same,MIC,Trichophyton rubrum,0.031 µg/mL
same,MIC50,Aspergillus fumigatus,0.00543 µM
